Where a name gives a salt, the structure may show the parent alone. Read-outs that look alike come from different tables or passages of the source.
Columns and labels:
mice = test: Acute toxicity (DL0, oral); assay type: in vivo, mouse; set-up: unit not given here
[1] = system: cardiac rhythm troubles in guinea pigs; test: Antiarythmic action (K-strophanthine and adrenaline induced cardiac rhythm troubles); assay type: in vivo, guinea pig; conditions: Cavia porcellus, 1 h, oral 10 mg/kg, one hour before K-strophanthine and adrenaline perfusion, read-out: Percentage of protection (lengthening of the time of appearance of cardiac rhythm troubles as compared to controls)
Protocol: Male guinea pigs weighing between 450 and 500 g were tracheotomized while anesthesized by intraperitoneal administration of […] of urethane and were subjected to artifical respiration of 40 to 50 breaths of 5 ml per minute. Needles were subcutaneously implanted to register an electrocardiogram of the guinea pigs for the signal of D II derivation. The test products were orally administered and one hour later, the jugular vein of the guinea pigs were perfused with 0.5 ml per minute of a solution of 150 γ/ml of K-strophanthine and 0.5 ml per minute of a solution of 5 γ/ml of adrenaline and the number of times of the appearance of cardiac rhythm troubles was noted. The results are expressed in percentage of protection with an oral dose of 10 mg/kg of test product that is to say the percentage of lengthening of the time of appearance of cardiac rhythm troubles as compared to the controls.

β1 adrenergic receptors = biological target: T1, β1 adrenergic receptors (Rattus norvegicus, UniProt P18090); test: Affinity for β1 adrenergic receptors (3H dihydroalprenolol displacement, rat brain cortex); assay type: binding; conditions: relative to propranolol, 37° C., pH 7.7
T1 construct: 10 cortexes removed from the brains of male rats weighing an average of 150 g; from tissue; host or cells: cerebral cortex of male rats (membranes)
T1 sequence (P18090 whole entry): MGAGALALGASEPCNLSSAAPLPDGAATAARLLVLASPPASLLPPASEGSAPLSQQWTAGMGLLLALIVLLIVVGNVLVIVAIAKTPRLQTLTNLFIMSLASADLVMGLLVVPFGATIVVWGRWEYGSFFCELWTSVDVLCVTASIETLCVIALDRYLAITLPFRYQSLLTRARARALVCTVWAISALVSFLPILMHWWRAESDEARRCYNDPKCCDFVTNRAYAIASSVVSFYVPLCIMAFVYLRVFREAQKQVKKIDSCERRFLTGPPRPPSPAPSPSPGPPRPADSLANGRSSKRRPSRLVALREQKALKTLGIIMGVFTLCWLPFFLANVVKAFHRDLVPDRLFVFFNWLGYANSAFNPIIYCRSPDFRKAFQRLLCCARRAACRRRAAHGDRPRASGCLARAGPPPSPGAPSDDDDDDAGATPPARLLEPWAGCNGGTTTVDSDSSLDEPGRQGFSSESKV
Protocol: The test was inspired by that of Mohler et al [Science, Vol. 198 (1977), p. 849-851] and 10 cortexes removed from the brains of male rats weighing an average of 150 g were homogenized in 90 ml of 0.32M of sucrose. After centrifuging the homogenized mixture at 1000 g for 20 minutes at 0° C., the surnageant was centrifuged at 30,000 g for 15 minutes at 0° to 4° C. The culot was suspended in 120 ml of buffer Tris HCl 50 mM with a pH of 7.7 and was centrifuged at 30,000 g for 15 minutes at 0° to 4° C. The resulting culot was suspended in 480 ml of buffer Krebs Tris HCl (50 mM-pH of 7.7) and 2 ml of the suspension in the presence of 3H dihydroalprenolol at a concentration of 10^-9 M alone and with increasing concentrations of the test compound or with non-radioactive propranolol at a concentration of 10^-5 M to determine the non-specific fixation was incubated at 37° C. for 10 minutes.
The incubated suspensions were filtered through Whatman GF/C and the filters were washed 3 times with 5 ml of buffer Krebs Tris HCl (pH-7.7) at 0° C. The radioactivity of the filters was measured by liquid scintillation and the affinity of the test compounds for β1 -adrenergic receptors was compared using propranolol as a standard as in Test D. The results are reported in Table VI.

[2] = system: Rat arteries (arterial contractions, entry of calcium ions into the cells of smooth muscles); test: In vitro anticalcic activity (inhibition of potassium-depolarized, calcium-induced contractions of isolated rat arteries); assay type: cell-based; conditions: dose inhibiting by 50% the contractions caused by potassium ions (100 mM), 37° C., read-out: CI50 (the source's name)
Protocol: Rat arteries decoupled in a spiral were attached to a tension collector and were maintained in tanks containing 2.5 ml of Krebs-sodium bicarbonate buffer (NaCl: 120.8 mM, KCl: 5.9 mM, MgCl2 : 1.2 mM, NaH2 PO4 : 1.2 mM, NaHCO3 : 15.5 mM, glucose: 12.6 mM), at 37° C. covered with a 95%-5% oxygen-carbon dioxide mixture. The preparations were depolarized with a buffered solution containing 100 mM of potassium ions (NaCl: 26.7 mM, KCl: 100 mM, MgCl2 : 1.2 mM, NaH2 PO4 : 1.2 mM, NaHCO3 : 15.5 mM, glucose 12.6 mM).
A volume of 25 μl of calcium chloride was added to the mixture in a manner to obtain a range of increasing concentrations of calcium ions from 0.1 to 3.0 mM and the contractions of the artery were measured to obtain a control. The operation with range of calcium ions was repeated every 15 minutes and the preparation was washed 4 times after each range. When a stable response was obtained, the operation with the range of calcium ions was effected in the presence of varying concentrations of test compounds until a stable response was obtained.
The arterial contractions depend on the entry of calcium ions into the cells of smooth muscles and are provoked by depolarization of smooth muscles by potassium ions and by action of noradrenaline freed by presynapthic level. By recommencing the operation with denerved arteries by the action of 6-hydroxy-dopamine, the specific action due to noradrenaline is suppressed.

[3] = system: carotidien arterial pressure in rats; test: Hypotensive activity (carotidien arterial pressure in anesthesized rats); assay type: in vivo, rat (Wistar); conditions: rat, intravenous
Protocol: The hypotensive activity was studied on male rats of the Wistar strain weighing about 300 g and anesthesized with 50 mg/kg of nembutal intraveinously. The test products were administered intraveinously by the jugular vein and the carotidien arterial pressure was measured before and after administration of the test compounds. The variations expressed in percentage of arterial pressure after administration with respect to the initial pressure is reported in Table IV.

α1 adrenergic receptors = test: Affinity for α1 adrenergic receptors (3H prazosine displacement, rat brain); assay type: binding; conditions: relative to phentolamine (ARL=100×(CB/CX)), 25° C., pH 7.7
Protocol: After centrifugation at 30,000 g for 15 minutes at 0° to 4° C., the culot was suspended in 240 ml of buffer Tris HCl 50 mM (pH-7.7) and the suspension was centrifuged at 30,000 g for 20 minutes at 0° to 4° C. The new culot was suspended in 480 ml of buffer Krebs Tris HCl (pH of 7.7-50 mM) and 2 ml of the suspension in the presence of 3H prazosine at a concentration of […] alone and with increasing concentrations of the test compound or with non-radioactive phentolamine at a concentration of 10^-5 M to determine the non-specific fixation was incubated at 25° C. for 30 minutes.
The incubated suspensions were filtered through Whatman FG/C and the filtered were washed with 3 times with 5 ml of buffer Krebs Tris HCl-pH of 7.7 at 0° to 4° C. The radioactivity of the filters was measured by liquid scintillation and the affinity of the test compound for α1 adrenergic receptors was compared relative to phentolamine as the reference compound by the formula
CD=concentration of phentolamine inhibiting by 50% the specific fixation of 3H prazosine.
CX=concentration of test product inhibiting by 50% the specific fixation of 3H prazosine.

[4] = 1 min, 1 minute, read-out: % Variation of arterial pressure after administration, 1 minute
[5] = 5 min, 5 minutes, read-out: % Variation of arterial pressure after administration, 5 minutes
[6] = 10 min, 10 minutes, read-out: % Variation of arterial pressure after administration, 10 minutes
[7] = 0.5 h, 30 minutes, read-out: % Variation of arterial pressure after administration, 30 minutes

SMILES	DL0 (maximum dose which did not cause any deaths after 8 days) (mice)	change in vivo at 10 mg/kg [1] [%]	ARL in % (relative affinity for β1 adrenergic receptors) (β1 adrenergic receptors) [%]	IC50 [2] [µM]	change in vivo at 1 mg/kg [3, 4] [%]	change in vivo at 1 mg/kg [3, 5] [%]	change in vivo at 1 mg/kg [3, 6] [%]	change in vivo at 1 mg/kg [3, 7] [%]	% Arl (relative affinity for α1 adrenergic receptors) (α1 adrenergic receptors) [%]
OC(COc1ccccc1F)CN1CCC(c2c[nH]c3ccccc23)CC1 (stereo not drawn) [Example 12, 4-(1H--indol-3-yl)-α-[2-fluorophenoxymethyl]-piperidine-1-ethanol hydrochloride]	80	90	1.2	3.2	-27	-14	-27	-24	233
COc1ccc(OCC(O)CN2CCC(c3c[nH]c4ccccc34)CC2)cc1 (stereo not drawn) [Example 8, 4-(1H--indol-3-yl)-α-[4-methoxyphenoxymethyl]-piperidine-1-ethanol hydrochloride]	> 200	57		4.2	-10	-13	0	-13	222
O=[N+]([O-])c1ccc(OCC(O)CN2CCC(c3c[nH]c4ccccc34)CC2)cc1 (stereo not drawn) [Example 5, 4-(1H--indol-3-yl)-α-[4-nitrophenoxymethyl]-piperidine-1-ethanol hydrochloride]	> 200	82		4.5					77
Cc1ccccc1OCC(O)CN1CCC(c2c[nH]c3ccccc23)CC1 (stereo not drawn) [Example 9, 4-(1H--indol-3-yl)-α-[2-methylphenoxymethyl]-piperidine-1-ethanol hydrochloride]	> 100	48	2.55	3.8	-21	-9	-25	-20	92
Oc1ccccc1OCC(O)CN1CCC(c2c[nH]c3ccccc23)CC1 (stereo not drawn) [Example 13, 4-(1H--indol-3-yl)-α-[2-hydroxy-phenoxymethyl]-piperidine-1-ethanol hydrochloride]	> 100	112	1.1	4.5					293
CC(=O)Nc1ccccc1OCC(O)CN1CCC(c2c[nH]c3ccccc23)CC1 (stereo not drawn) [Example 20, 4-(1H--indol-3-yl)-α-[2-acetamidophenoxymethyl]-piperidine-1-ethanol hydrochloride]									311
O=[N+]([O-])c1ccccc1OCC(O)CN1CCC(c2c[nH]c3ccccc23)CC1 (stereo not drawn) [Example 11, 4-(1H--indol-3-yl)-α-[2-nitrophenoxymethyl]-piperidine-1-ethanol hydrochloride]	100	56	1.2	4.2					77
OC(COc1ccccc1Cl)CN1CCC(c2c[nH]c3ccccc23)CC1 (stereo not drawn) [Example 10, 4-(1H--indol-3-yl)-α-[2-chlorophenoxymethyl]-piperidine-1-ethanol hydrochloride]	> 100	59	1.95	2	-21	-20	-12	-20	
COc1cccc(OCC(O)CN2CCC(c3c[nH]c4ccccc34)CC2)c1 (stereo not drawn) [Example 23, 4-(1H--indol-3-yl)-α-[3-methoxyphenoxymethyl]-piperidine-1-ethanol hydrochloride]	> 200	73		2.7	-7	-19	14	-17	
OC(COc1ccc(C(F)(F)F)cc1)CN1CCC(c2c[nH]c3ccccc23)CC1 (stereo not drawn) [Example 25, 4-(1H--indol-3-yl)-α-[4-trifluoramethylphenoxymethyl]-piperidine-1-ethanol hydrochloride]	100	35		1.5	-5	-14	-6	-14	
OC(COc1cccc2ccccc12)CN1CCC(c2c[nH]c3ccccc23)CC1 (stereo not drawn) [Example 2, 4-(1H-indol-3-yl)-α-[1-naphthyloxymethyl]-piperidine-1-ethanol]	> 1000		0.9	3.5					
Cc1ccc(OCC(O)CN2CCC(c3c[nH]c4ccccc34)CC2)cc1 (stereo not drawn) [Example 21, 4-(1H--indol-3-yl)-α-[4-methylphenoxymethyl]-piperidine-1-ethanol hydrochloride]	> 100	60		1.8					93
OC(COc1cccc(Cl)c1)CN1CCC(c2c[nH]c3ccccc23)CC1 (stereo not drawn) [Example 22, 4-(1H--indol-3-yl)-α-[3-chloro-phenoxymethyl]-piperidine-1-ethanol hydrochloride]	80			1.8					70

From US4530932A, “4-(1H-indol-3-yl)-α-methyl-piperidine-1-ethanol derivatives” (Roussel Uclaf, priority 1982, dated 1985)
